Laboratory results as given in patent publication US11155557B2, “Pyrazolopyrimidine compounds and methods of use thereof” (Genentech, Inc., priority 2016, dated 2021).
Where two headings read alike, the source gives them in different places.

How the values were obtained:
[1] = molecular target: isolated recombinant JAK1 kinase domain (Homo sapiens (Human), UniProt P23458); assay: JAK1 enzyme assay (Caliper LabChip, Ki); assay type: biochemical
Description: The activity of the isolated recombinant JAK1 and JAK2 kinase domain was measured by monitoring phosphorylation of a peptide derived from JAK3 ([…] fluorescently labeled on the N-terminus with 5-carboxyfluorescein) using the Caliper LabChip R technology (Caliper Life Sciences, Hopkinton, Mass.).

[2] = molecular target: isolated recombinant JAK2 kinase domain (Homo sapiens (Human), UniProt O60674); assay: JAK2 enzyme assay (Caliper LabChip, Ki)
Description: JAK Enzyme Assays were Carried Out as Follows:
The activity of the isolated recombinant JAK1 and JAK2 kinase domain was measured by monitoring phosphorylation of a peptide derived from JAK3 ([sequence] fluorescently labeled on the N-terminus with 5-carboxyfluorescein) using the Caliper LabChip R technology (Caliper Life Sciences, Hopkinton, Mass.). […] After termination of the kinase reaction, the proportion of phosphorylated product was determined as a fraction of total peptide substrate using the Caliper LabChip R 3000 according to the manufacturer's specifications.

[3] = tested on: JAK1-dependent STAT6 phosphorylation in BEAS-2B human bronchial epithelial cells; assay: JAK1 pathway assay: IL-13 stimulated STAT6 phosphorylation in BEAS-2B cells; assay type: cell-based; details: Homo sapiens, BEAS-2B, BEAS-2B cells, IL-13 stimulation; read-out: IL-13 p-STAT6 BEAS-2B IC50
Description: JAK1 Pathway Assay in Cell Lines was Carried Out as Follows:
Inhibitor potency (EC50) was determined in cell-based assays designed to measure JAK1 dependent STAT phosphorylation.
In one assay approach, TF-1 human erythroleukemia cells obtained from the American Type Culture Collection (ATCC; Manassas, Va.) were used to measure JAK1-dependent STAT6 phosphorylation downstream of IL-13 stimulation. Prior to use in the assays, TF-1 cells were starved of GM-CSF overnight in OptiMEM medium (Life Technologies, Grand Island, N.Y.) supplemented with 0.5% charcoal/dextran stripped fetal bovine serum (FBS), 0.1 mM non-essential amino acids (NEAA), and 1 mM sodium pyruvate. The assays were run in 384-well plates in serum-free OptiMEM medium using 300,000 cells per well. In a second assay approach, BEAS-2B human bronchial epithelial cells obtained from ATCC were plated at 100,000 cells per well of a 96-well plate one day prior to the experiment. The BEAS-2B assay was run in complete growth medium (bronchial epithelial basal medium plus bulletkit; Lonza; Basel, Switzerland).
Test compounds were serially diluted 1:2 in DMSO and then diluted 1:50 in medium just before use. Diluted compounds were added to the cells, for a final DMSO concentration of 0.2%, and incubated for 30 min (for the TF-1 assay) or 1 hr (for the BEAS-2B assay) at 37° C. Then, cells were stimulated with human recombinant cytokine at their respective EC90 concentrations, as previously determined for each individual lot. Cells were stimulated with IL-13 (R&D Systems, Minneapolis, Minn.) for 15 min at 37° C. […] The resultant samples were frozen in the plates at −80° C. Compound mediated inhibition of STAT6 phosphorylation was measured in the cell lysates using MesoScale Discovery (MSD) technology (Gaithersburg, Md.).

isolated recombinant JAK1 kinase domain, sequence (P23458 875-1153): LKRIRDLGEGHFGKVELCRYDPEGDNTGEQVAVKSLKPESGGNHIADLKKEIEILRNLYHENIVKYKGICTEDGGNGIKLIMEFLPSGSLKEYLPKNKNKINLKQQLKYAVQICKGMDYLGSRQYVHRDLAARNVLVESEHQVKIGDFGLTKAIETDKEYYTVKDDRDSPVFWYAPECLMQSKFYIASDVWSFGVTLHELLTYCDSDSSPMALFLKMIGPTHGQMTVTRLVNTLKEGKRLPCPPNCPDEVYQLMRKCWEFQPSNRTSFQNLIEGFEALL
isolated recombinant JAK2 kinase domain, sequence (O60674 849-1124): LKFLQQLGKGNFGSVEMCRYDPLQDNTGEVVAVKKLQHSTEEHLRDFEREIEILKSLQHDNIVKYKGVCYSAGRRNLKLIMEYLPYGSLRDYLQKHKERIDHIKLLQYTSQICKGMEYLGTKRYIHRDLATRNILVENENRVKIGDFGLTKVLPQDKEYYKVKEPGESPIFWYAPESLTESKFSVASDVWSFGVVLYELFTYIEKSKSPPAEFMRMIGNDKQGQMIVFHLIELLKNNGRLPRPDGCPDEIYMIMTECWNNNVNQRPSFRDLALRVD

Row | Ki [1] [nM] | Ki ([2]; read-out: JAK2 Ki) [nM] | Ki [2] [nM] | SMILES | IC50 [3] [nM]
1 | 3.99 | 2.85 |  | CC(C)(C)OC(=O)N1CCN(C(=O)c2cc3cc(OC(F)F)c(-c4n[nH]cc4NC(=O)c4cnn5cccnc45)cc3s2)CC1 [Example 9, tert-Butyl 4-(5-(difluoromethoxy)-6-(4-(pyrazolo[1,5-a]pyrimidine-3-carboxamido)-1H-pyrazol-3-yl)benzo[b]thiophene-2-carbonyl)piperazine-1-carboxylate] | 153
2 | 4.54 | 1.99 |  | O=C(Nc1c[nH]nc1-c1cc2sc(C(=O)N3CCNCC3)cc2cc1OC(F)F)c1cnn2cccnc12 [Example 10, N-(3-(5-(difluoromethoxy)-2-(piperazine-1-carbonyl)benzo[b]thiophen-6-yl)-1H-pyrazol-4-yl)pyrazolo[1,5-a]pyrimidine-3-carboxamide] | > 1000
3 | 0.1 | 0.08 |  | O=C(Nc1c[nH]nc1-c1cc2c(cc1OC(F)F)NCCO2)c1cnn2cccnc12 [Example 11] | 4
4 | 0.09 | 0.06 |  | O=C(Nc1c[nH]nc1-c1cc2c(cc1OC(F)F)NCCS2)c1cnn2cccnc12 [Example 12, N-(3-(6-(difluoromethoxy)-3,4-dihydro-2H-benzo[b][1,4]thiazin-7-yl)-1H-pyrazol-4-yl)pyrazolo[1,5-a]pyrimidine-3-carboxamide] | 6
5 | 0.18 | 0.13 |  | NCCn1cc(NC(=O)c2cnn3cccnc23)c(-c2cc3c(cc2OC(F)F)NCCS3)n1 [Example 13, N-(1-(2-aminoethyl)-3-(6-(difluoromethoxy)-3,4-dihydro-2H-benzo[b][1,4]thiazin-7-yl)-1H-pyrazol-4-yl)pyrazolo[1,5-a]pyrimidine-3-carboxamide] | 20
6 | 0.05 | 0.04 |  | O=C1CSc2cc(-c3n[nH]cc3NC(=O)c3cnn4cccnc34)c(OC(F)F)cc2N1 [Example 14, N-[3-[6-(difluoromethoxy)-3-oxo-3,4-dihydro-2H-1,4-benzothiazin-7-yl]-1H-pyrazol-4-yl]pyrazolo[1,5-a]pyrimidine-3-carboxamide] | 27
7 | 0.21 | 0.09 |  | O=C(Nc1c[nH]nc1-c1cc2c(cc1OC(F)F)CCO2)c1cnn2cccnc12 [Example 16, N-(3-(5-(difluoromethoxy)-2,3-dihydrobenzofuran-6-yl)-1H-pyrazol-4-yl)pyrazolo[1,5-a]pyrimidine-3-carboxamide] | 5
8 | 0.32 | 0.14 |  | O=C(Nc1c[nH]nc1-c1cc2c(cc1OC(F)F)CCCO2)c1cnn2cccnc12 [Example 17, N-[3-[6-(difluoromethoxy)-3,4-dihydro-2H-1-benzopyran-7-yl]-H-pyrazol-4-yl]pyrazolo[1,5-a]pyrimidine-3-carboxamide] | 14
9 | 0.3 | 0.33 |  | COC(=O)Cn1cc(NC(=O)c2cnn3cccnc23)c(-c2cc3sc(C#N)cc3cc2OC(F)F)n1 [Example 19, Methyl 2-(3-(2-cyano-5-(difluoromethoxy)benzo[b]thiophen-6-yl)-4-(pyrazolo[1,5-a]pyrimidine-3-carboxamido)-1H-pyrazol-1-yl)acetate] | 21
10 | 5.57 | 4.48 |  | Cn1cc(NC(=O)c2cnn3cccnc23)c(-c2cc3sc(C(=O)N4CCN(C(=O)OC(C)(C)C)CC4)cc3cc2OC(F)F)n1 [Example 20, tert-Butyl 4-(5-(difluoromethoxy)-6-(1-methyl-4-(pyrazolo[1,5-a]pyrimidine-3-carboxamido)-1H-pyrazol-3-yl)benzo[b]thiophene-2-carbonyl)piperazine-1-carboxylate] | 186
11 | 0.07 |  | 0.05 | O=C(Nc1c[nH]nc1-c1cc2cn[nH]c2cc1OC(F)F)c1cnn2cccnc12 [Example 21, N-(3-(6-(difluoromethoxy)-1H-indazol-5-yl)-1H-pyrazol-4-yl)pyrazolo[1,5-a]pyrimidine-3-carboxamide] | 37
